In the OligoGym collection:
“And” between values parts separate entries of the source, which are not always exact repeats. Equal entries are not always repeated. After the bases stand the sugars from the 5' end (letter, count) and the backbone: PS all phosphorothioate, else s phosphorothioate and o phosphodiester by linkage. Methylation of C is not given here. e = 2'-O-(2-methoxyethyl) (MOE); k = constrained ethyl (cEt); d = 2'-deoxy (DNA)

Target: APOL1
Conditions: ASO

Sequence | target mRNA inhibition (A431, 0.0625 µM) [%] | target mRNA inhibition (A431, 0.25 µM) | target mRNA inhibition (A431, 1 µM) | target mRNA inhibition (A431, 0.0156 µM) [%] | target mRNA inhibition (A431, 2 µM) [%]
CCCCTGCCAGGCATAT (sugars k4 d9 k3, PS) | 22 | 42% | 44% |  | 
CTTTATACCAGTGTCT (sugars k3 d4 k3 e1 d5, PS) | 54 | 78% | 91% | 19 | 95
CAGTTTTGTAAGTGCA (sugars kkddddkekekkdddd, PS) |  |  |  |  | 18
GAGTATTGTTTTTGTG (sugars kdddddkekekddddd, PS) |  |  |  |  | 90
CAGTTCCCATTTTTCC (sugars k4 d9 k3, PS) | 62 | 83% | 94% |  | 
TTTTGTAAGTGCAACC (sugars kkkddddkekeddddd, PS) | 67 | 89% | 97% | 21 | 98
GTCCTTACTGCAGTTT (sugars k4 d9 k3, PS) | 60 | 83% | 93% |  | 
CAGTTTTGTAAGTGCA (sugars k3 d5 k3 d5, PS) |  |  |  |  | 97
TTATTCTCATGGTACA (sugars kkddddekekeddddd, PS) |  |  |  |  | 51
TTTATACCAGTGTCTT (sugars kkddddkdkdkddddd, PS) |  |  |  |  | 81
CTTTATACCAGTGTCT (sugars kkkddddkekekdddd, PS) |  |  |  |  | 76
CTTTAAACTCAGGTGA (sugars k2 d4 e3 k2 d5, PS) | 40 | 61% | 85% | 19 | 92
ATTCTCATGGTACAGG (sugars kkkddddkdkdkdddd, PS) |  |  |  |  | 81
GAAAATATCAGAGTGT (sugars k4 d9 k3, PS) | 29 | 68% | 90% |  | 
ATTCTCATGGTACAGG (sugars k2 d4 e3 k2 d5, PS) | 34 | 72% | 90% | 13 | 92
AATTCTATTAGAGGGC (sugars k2 d4 e3 k2 d5, PS) |  |  |  |  | 73

Sequence | target mRNA inhibition (A431, 0.0625 µM) [%] | target mRNA inhibition (A431, 0.25 µM) | target mRNA inhibition (A431, 1 µM) | target mRNA inhibition (A431, 0.0156 µM) [%] | target mRNA inhibition (A431, 2 µM) [%]
CAAGGTTGTCCAGAGC (sugars k4 d9 k3, PS) | 31 | 58% | 64% |  | 
TTCTATTAGAGGGCTA (sugars kkddddekekeddddd, PS) |  |  |  |  | 85
CCTTACTGCAGTTTCA (sugars k4 d9 k3, PS) | 47 | 79% | 91% |  | 
CACTTGAGTCATTTGC (sugars k4 d9 k3, PS) | 37 | 73% | 86% |  | 
ACACATCATTGGGTTA (sugars kkddddkekekddddd, PS) |  |  |  |  | 50
ACACATCATTGGGTTA (sugars kkdddddkekeddddd, PS) |  |  |  |  | 72
ATTGGCTCAGTGACCC (sugars k4 d9 k3, PS) |  | 72% and 76% | 88% and 86% |  | 
GTTCAAAAGCAGCATT (sugars kkddddkekekddddd, PS) |  |  |  |  | 60
AGCTTTAAACTCAGGT (sugars kkkddddkekeddddd, PS) |  |  |  |  | 85
TATATTTGATCCTCAA (sugars kdddddkekekddddd, PS) |  |  |  |  | 89
GTTTTGTTGCACCCTC (sugars k4 d9 k3, PS) | 65 | 82% | 95% |  | 
TATCAGATGGGTACTT (sugars k3 d4 k3 e1 d5, PS) |  |  |  |  | 69
CATTCAGAATTTCCAC (sugars kkdddddkekeddddd, PS) |  |  |  |  | 84
AGTATTGTTTTTGTGG (sugars kkdddddkekeddddd, PS) |  |  |  |  | 91
CTTTATACCAGTGTCT (sugars kkddddkekekkdddd, PS) |  |  |  |  | 87
